Patent publication US7534871B2, “Preparation and use of carbohydrate-based bicyclic ring structures with antimicrobial and cytostatic activity” (Kemin Pharma B.V.B.A., priority 2004, dated 2009)
In brackets after ≈: the same amount, converted by molar mass. Where two headings read alike, the source gives them in different places.

Experiments:
[1] = system: E. faecalis ATTC29212 LMG 8222; test: Anti-bacterial activity, Bioscreen C growth curve: E. faecalis; assay type: cell-based; conditions: Enterococcus faecalis, LMG8222, 35° C., 16 hours, negative control = 100, read-out: % of growth at 25 PPM compared to the negative control, E. faecalis ATTC29212 LMG 8222
Method: (§1) For the determination of the anti-bacterial and anti-fungal activity the Bioscreen C Analyser Labsystems, Finland, was used. This is an automated reader-incubator. It measures growth continuously by vertical photometry (optical density), processes the data and provides a print out of the results. The area under the growth curve is automatically determined via the Biolink software.
(§2) The inoculum size of the bacteria is standardized to approximately 5×10^5 CFU/ml.
(§3) For bacteria, the 100-honey-well plates containing test chemical, Mueller-Hinton broth and inoculum (=sample) are incubated at 35° C. for 16 hours. Also wells without inoculum are incubated (=blanco). Yeasts are incubated 35° C. for 24 hours in RPMI 1640+MOPS buffer at 165 mM. Moulds also in RPMI 1640+MOPS buffer at 165 mM are incubated 25° C. for 5 days. All micro-organisms are screened against a known concentration of the reference antibiotics or antimycotics such as vancomycin, penicillin G, gentamicin or amphotericin B. The growth curve and the area under the growth curve can be determined using the Biolink software; this is illustrated in FIG. 1.
(§4) The area of the blanco is subtracted from the area of the sample, this number (delta) gives us an indication of the biological activity of the molecules tested and can be expressed as a % of growth at a specific dose compared to a negative control that has a value of 100, illustrated in FIG. 2. Screening of each dose of a specific compound is repeated 5 times. The dose used for all new molecules in all tests is 25 PPM or 25 μg/ml.
(§5) In Table 4 the results of the anti-bacterial activity is given for the new molecules. The micro-organisms used are Staphylococcus aureus, MRSA, VRE, Enterococcus faecalis, Salmonella typhimurium and Pseudomonas aeruginosa.

[2] = system: HIV-1 (IIIB); test: microbe, parasite or virus in culture; assay type: cell-based; conditions: Human immunodeficiency virus 1, IIIB, CCRF-CEM; concentration required to inhibit HIV-induced cytopathicity in human CEM cell cultures by 50%
[3] = system: Candida albicans IHEM 10284 - ATCC 24433; test: Anti-fungal activity, Bioscreen C growth curve: Candida albicans (yeast); assay type: cell-based; conditions: for activity at 25 ppm: Candida albicans, ATCC24433, 35° C., 24 hours, negative control = 100, read-out: % of growth at a dose of 25 PPM compared to the negative control, Candida albicans IHEM 10284 - ATCC 24433
Method: as §1
The inoculum size of the yeast is standardized to 0.5-2.5×10^3 CFU/ml.
as §3, §4
(§6) In Table 5 the anti-fungal activity is given for the new molecules. The micro-organisms used were Candida albicans (a typical yeast) and Microsporum gypseum (a typical mold).
as §1, with “Also for” for “For”, “the” for “the anti-bacterial and”, “Labsystems Oy, Finland” for “Labsystems, Finland,”, “used.” for “used. This is an automated reader-incubator.”
(§7) The inoculum size of the yeast is standardized to 0.5-2.5×10^3 CFU/ml. The inoculum size of the mould is standardized to 0.4-5.0×10^4 CFU/ml. Yeasts are incubated 35° C. for 24 hours in RPMI 1640+MOPS buffer at 165 mM. Moulds also in RPMI 1640+MOPS buffer at 165 mM are incubated 25° C. for 5 days.
(§8) As a control, all micro-organisms are screened against some reference antibiotics with known MIC. Screening of each dose of a specific compound is repeated 5 times.

[4] = system: human T-lymphocyte cells (CEM/0); test: Cytostatic activity: inhibition of proliferation of CEM/0 cells; assay type: cell-based; conditions: CCRF-CEM, read-out: IC50 CEM/0
Method: (§9) The compounds were tested for anti-tumor activity via the inhibitory effects on the proliferation of murine leukemia cells (L1210/0), murine mammary carcinoma cells (FM3A), human T-lymphocyte cells (Molt4/C8, CEM/0) and human cervix carcinoma cells (HeLa).

[5] = system: murine mammary carcinoma cells (FM3A); test: Cytostatic activity: inhibition of proliferation of FM3A cells; assay type: cell-based; conditions: Mus musculus, read-out: IC50 FM3A/0
Method: as §9

[6] = system: VRE ATCC700221; test: Anti-bacterial activity, Bioscreen C growth curve: VRE; assay type: cell-based, vancomycin-resistant Enterococcus (VRE); conditions: Enterococcus, 35° C., 16 hours, negative control = 100, read-out: % of growth at 25 PPM compared to the negative control, VRE ATCC700221
Method: as §1, §2, §3, §4, §5

[7] = system: human T-lymphocyte cells (Molt4/C8); test: Cytostatic activity: inhibition of proliferation of Molt4/C8 cells; assay type: cell-based
Method: as §9

[8] = system: S. aureus ATTC29213 LMG10147; test: Anti-bacterial activity, Bioscreen C growth curve: S. aureus; assay type: cell-based; conditions: Staphylococcus aureus, 35° C., 16 hours, negative control = 100, read-out: % of growth at 25 PPM compared to the negative control, S. aureus ATTC29213 LMG10147
Method: as §1, §2, §3, §4, §5

[9] = system: VZV YS; test: Anti-viral activity: VZV-induced plaque formation in HEL cell cultures, YS strain; assay type: cell-based, varicella zoster virus (VZV); conditions: Human alphaherpesvirus 3, VZV-induced plaque formation in human embryonic lung HEL cell cultures, 50%
[10] = system: Microsporum gypseum IHEM 3999 - ATCC 14683; test: Anti-fungal activity, Bioscreen C growth curve: Microsporum gypseum (mold); assay type: cell-based; conditions: Nannizzia gypsea, ATCC14683, 120 h; 25 PPM; 25° C., 5 days; negative control = 100; read-out: % of growth at a dose of 25 PPM compared to the negative control, Microsporum gypseum IHEM 3999 - ATCC 14683
Method: as §1
The inoculum size of the mould is standardized to 0.4-5.0×10^4 CFU/ml.
as §3, §4, §6
as §1, with “Also for” for “For”, “the” for “the anti-bacterial and”, “Labsystems Oy, Finland” for “Labsystems, Finland,”, “used.” for “used. This is an automated reader-incubator.”
as §7, §8

[11] = system: murine leukemia cells (L1210/0); test: Cytostatic activity: inhibition of proliferation of L1210/0 cells; assay type: cell-based; conditions: Mus musculus
Method: as §9

[12] = system: MRSA ATCC33591; test: Anti-bacterial activity, Bioscreen C growth curve: MRSA; assay type: cell-based, methicillin-resistant Staphylococcus aureus (MRSA); conditions: Staphylococcus aureus, ATCC 33591 / LMG10147 / MRSA; 25 PPM; 35° C., 16 hours; negative control = 100; read-out: % of growth at 25 PPM compared to the negative control, MRSA ATCC33591 LMG10147
Method: as §1, §2, §3, §4, §5

[13] = system: HSV-1 (KOS); test: Anti-viral activity: HSV-1-induced cytopathicity in human embryo fibroblast E6SM cell cultures; assay type: cell-based, herpes simplex virus (HSV); conditions: Human alphaherpesvirus 1, 50%
[14] = 50% inhibitory concentration, cell proliferation
[15] = Molt4/C8, 50% inhibitory concentration, cell proliferation, read-out: IC50 Molt4/C8
[16] = L1210/0, 50% inhibitory concentration, cell proliferation, read-out: IC50 L1210/0

SMILES | activity at 25 ppm [1] | EC50 [2] | activity at 25 ppm [3] | activity against a yeast, in words ([3]; conclusion in text on Table 5) | IC50 [4, 14] | IC50 [5, 14] | activity at 25 ppm [6] | IC50 [7, 15] | activity at 25 ppm [8] | EC50 [9] | activity at 25 ppm [10] | IC50 [11, 16] | activity at 25 ppm [12] | EC50 [13] | IC50 [4] | IC50 [5] | IC50 ([7]; Molt4/C8, read-out: IC50 Molt4/C8) | IC50 ([11]; L1210/0, read-out: IC50 L1210/0)
CO[C@@H]1[C@@H](OC)[C@H](c2ccccc2)O[C@@H]2CO[C@@H](c3ccccc3)O[C@@H]12 [KPE00001015] | 86% | > 4 µg/mL | 66.6% | best activity | 81 ± 10 µg/mL (≈ 227 µM) | > 200 µg/mL | 67.8% | 62 ± 3 µg/mL (≈ 174 µM) | 104% | 14 µg/mL (≈ 39.3 µM) | 66% | ≥ 200 µg/mL | 117% | > 80 µg/mL | – | – | – | –
CO[C@@H]1[C@@H](OC)[C@H](Sc2ccccc2)O[C@@H]2COC(=O)CCCC/C=C/CCCCC(=O)O[C@@H]12 [KPE00001016.1] | 76.5% | > 4 µg/mL | 98.4% | – | 23 ± 0.5 µg/mL (≈ 46.7 µM) | 108 ± 9 µg/mL (≈ 219 µM) | 61.8% | 39 ± 1 µg/mL (≈ 79.2 µM) | 103% | 22 µg/mL (≈ 44.7 µM) | 74% | 20 ± 7 µg/mL (≈ 40.6 µM) | 115% | > 3.2 µg/mL | – | – | – | –
CO[C@@H]1[C@@H](OC)[C@H](Sc2ccccc2)O[C@@H]2COC(=O)CCCC/C=C\CCCCC(=O)O[C@@H]12 [KPE00001016.2] | 98.4% | > 100 µg/mL | 85% | – | 36 ± 16 µg/mL (≈ 73.1 µM) | > 200 µg/mL | 81% | 78 ± 53 µg/mL (≈ 158 µM) | 97% | > 50 µg/mL | 58% | 158 ± 10 µg/mL (≈ 321 µM) | 104% | > 3.2 µg/mL | – | – | – | –
CO[C@@H]1[C@@H](OC)[C@H](Cc2ccccc2)O[C@@H]2CO[C@@H](c3ccccc3)O[C@@H]12 [KPE00001019] | 104% | > 100 µg/mL | 98.5% | – | ≥ 200 µg/mL | > 200 µg/mL | 97% | ≥ 200 µg/mL | 109% | > 5 µg/mL | 66% | > 200 µg/mL | 104% | > 80 µg/mL | – | – | – | –
CO[C@@H]1[C@@H](OC)[C@H](Cc2ccccc2)O[C@@H]2COC(=O)CC/C=C/CCC(=O)O[C@@H]12 [KPE00001022] | 96.1% | > 20 µg/mL | 91.5% | – | – | – | 87% | – | 102% | > 20 µg/mL | 67% | – | 110% | > 80 µg/mL | 48 ± 15 µg/mL (≈ 115 µM) | 82 ± 14 µg/mL (≈ 196 µM) | 69 ± 6 µg/mL (≈ 165 µM) | 80 µg/mL (≈ 191 µM)
CO[C@@H]1[C@@H](OC)[C@H](Cc2ccccc2)O[C@@H]2COC(=O)CCCCCCCCC=CCCCCCCCCC(=O)O[C@@H]12 [KPE00001031E] | 85.5% | > 100 µg/mL | 88.3% | – | ≥ 200 µg/mL | ≥ 200 µg/mL | 85.4% | ≥ 200 µg/mL | 100% | 15 µg/mL (≈ 25.6 µM) | 62% | > 200 µg/mL | 104% | ≥ 400 µg/mL | – | – | – | –
